Laboratory results: patent publication US20250136595A1, “ACYLATED HETEROCYCLIC QUINAZOLINE DERIVATIVES AS INHIBITORS OF ERBB2” (Enliven Inc., priority 2022, published 2025)

Tests used:
Ba/F3 ERBB2 YVMA = Ba/F3 ERBB2 YVMA (Homo sapiens, UniProt P04626, DUP772-775, cells depend on it); assay: Cell viability assay (CellTiter Glo) in Ba/F3 cells engineered to express ERBB2 YVMA; type: cell-based, mouse; details: Ba/F3 cells expressing human ERBB2 YVMA mutant, 72 hours, % viability, read-out: Ba/F3 ERBB2 YVMA IC50
Ba/F3 ERBB2 YVMA, sequence (P04626 with tags, fused parts or gaps DUP772-775): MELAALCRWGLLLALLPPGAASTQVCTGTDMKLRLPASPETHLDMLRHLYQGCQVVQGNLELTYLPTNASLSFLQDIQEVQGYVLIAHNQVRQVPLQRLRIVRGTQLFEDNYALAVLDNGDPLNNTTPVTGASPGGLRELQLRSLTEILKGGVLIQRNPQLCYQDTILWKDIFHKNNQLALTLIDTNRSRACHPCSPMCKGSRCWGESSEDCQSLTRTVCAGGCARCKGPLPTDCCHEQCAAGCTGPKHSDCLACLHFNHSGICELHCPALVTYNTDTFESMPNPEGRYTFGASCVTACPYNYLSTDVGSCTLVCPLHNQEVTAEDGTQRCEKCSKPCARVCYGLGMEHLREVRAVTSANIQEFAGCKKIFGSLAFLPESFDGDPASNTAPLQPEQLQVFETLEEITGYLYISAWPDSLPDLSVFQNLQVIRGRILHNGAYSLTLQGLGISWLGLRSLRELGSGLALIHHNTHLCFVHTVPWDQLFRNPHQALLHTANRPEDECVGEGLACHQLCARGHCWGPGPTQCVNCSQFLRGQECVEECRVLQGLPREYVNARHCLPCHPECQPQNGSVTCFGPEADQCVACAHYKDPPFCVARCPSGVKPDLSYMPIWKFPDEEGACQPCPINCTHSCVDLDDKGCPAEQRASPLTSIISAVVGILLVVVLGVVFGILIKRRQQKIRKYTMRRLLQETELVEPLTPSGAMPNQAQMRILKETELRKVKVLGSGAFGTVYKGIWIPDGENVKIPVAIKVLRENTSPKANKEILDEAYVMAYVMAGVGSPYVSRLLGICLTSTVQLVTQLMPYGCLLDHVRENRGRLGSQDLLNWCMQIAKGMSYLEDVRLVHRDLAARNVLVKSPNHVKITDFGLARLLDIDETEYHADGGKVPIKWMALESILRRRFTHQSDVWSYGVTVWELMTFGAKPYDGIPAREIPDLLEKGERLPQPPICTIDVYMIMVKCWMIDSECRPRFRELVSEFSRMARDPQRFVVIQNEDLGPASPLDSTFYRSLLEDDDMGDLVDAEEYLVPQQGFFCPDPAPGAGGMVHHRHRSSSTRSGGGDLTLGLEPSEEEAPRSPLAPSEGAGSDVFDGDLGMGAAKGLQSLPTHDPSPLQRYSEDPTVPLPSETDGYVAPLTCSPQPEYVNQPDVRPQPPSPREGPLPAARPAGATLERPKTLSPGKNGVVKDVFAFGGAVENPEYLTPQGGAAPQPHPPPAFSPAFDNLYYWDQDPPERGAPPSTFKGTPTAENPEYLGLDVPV
Protocol: Cells were treated with compounds, and cell viability was measured as a metric of kinase inhibition.
The Ba/F3 cell line is IL-3-dependent mouse cell line derived from the C3H mouse strain. Ba/F3 cell lines were engineered to express human ERBB2 or EGFR kinases, rendering the cells IL-3 independent. The lines were generated via retroviral transduction utilizing a Moloney murine leukemia virus (MMLV) promoter, and constructs are stably integrated into the cell genome. The sequences of the ERBB2 and EGFR genes used were NCBI Reference Sequences NM_004448.3 and NM_005228.3, respectively.
Similarly, Ba/F3 cell lines engineered to express EGFR, ERBB2, or ERBB2 mutants were grown, harvested, counted and seeded at 3000 cells per well in 96-well plates for the data sets shown in Tables B3-B4. A subset of wells contained media only (low control, “LC”).
Table B1 provides the growth media and number of cells seeded per well for the each cell line.
Compounds were dissolved in DMSO and serially diluted. Serially-diluted compound or a DMSO only control (high control, “HC”) was added to the plated cells in each well. […] The final proportion of DMSO never exceeded 0.1%.
Plates were placed in a 37° C., 5% CO2 incubator for 72 hours. Plates were then removed from the incubator and equilibrated for 15 minutes at room temperature. 40 μl of CellTiter Glo reagent (Promega) was added to measure the relative level of metabolically active cells by quantifying intracellular ATP concentrations. Plates were incubated for 30 minutes at room temperature, and luminescence was measured. Percent viability was normalized to a vehicle control only using the following formula: % viability=100×(Lumsample−LumLC)/(LumHC−LumLC). Graphical curves were fitted using a nonlinear regression model with a sigmoidal dose response.

[1] = molecular target: T1, phosphorylated ERBB2 (pERBB2) (Homo sapiens, UniProt P04626); assay: Detection of phosphorylated ERBB2 (pERBB2) by ELISA in BT-474 cells; type: cell-based; details: four hour incubation with compound
T1 construct: endogenous in cells; host or cells: BT-474
T1 sequence (P04626 23-1255): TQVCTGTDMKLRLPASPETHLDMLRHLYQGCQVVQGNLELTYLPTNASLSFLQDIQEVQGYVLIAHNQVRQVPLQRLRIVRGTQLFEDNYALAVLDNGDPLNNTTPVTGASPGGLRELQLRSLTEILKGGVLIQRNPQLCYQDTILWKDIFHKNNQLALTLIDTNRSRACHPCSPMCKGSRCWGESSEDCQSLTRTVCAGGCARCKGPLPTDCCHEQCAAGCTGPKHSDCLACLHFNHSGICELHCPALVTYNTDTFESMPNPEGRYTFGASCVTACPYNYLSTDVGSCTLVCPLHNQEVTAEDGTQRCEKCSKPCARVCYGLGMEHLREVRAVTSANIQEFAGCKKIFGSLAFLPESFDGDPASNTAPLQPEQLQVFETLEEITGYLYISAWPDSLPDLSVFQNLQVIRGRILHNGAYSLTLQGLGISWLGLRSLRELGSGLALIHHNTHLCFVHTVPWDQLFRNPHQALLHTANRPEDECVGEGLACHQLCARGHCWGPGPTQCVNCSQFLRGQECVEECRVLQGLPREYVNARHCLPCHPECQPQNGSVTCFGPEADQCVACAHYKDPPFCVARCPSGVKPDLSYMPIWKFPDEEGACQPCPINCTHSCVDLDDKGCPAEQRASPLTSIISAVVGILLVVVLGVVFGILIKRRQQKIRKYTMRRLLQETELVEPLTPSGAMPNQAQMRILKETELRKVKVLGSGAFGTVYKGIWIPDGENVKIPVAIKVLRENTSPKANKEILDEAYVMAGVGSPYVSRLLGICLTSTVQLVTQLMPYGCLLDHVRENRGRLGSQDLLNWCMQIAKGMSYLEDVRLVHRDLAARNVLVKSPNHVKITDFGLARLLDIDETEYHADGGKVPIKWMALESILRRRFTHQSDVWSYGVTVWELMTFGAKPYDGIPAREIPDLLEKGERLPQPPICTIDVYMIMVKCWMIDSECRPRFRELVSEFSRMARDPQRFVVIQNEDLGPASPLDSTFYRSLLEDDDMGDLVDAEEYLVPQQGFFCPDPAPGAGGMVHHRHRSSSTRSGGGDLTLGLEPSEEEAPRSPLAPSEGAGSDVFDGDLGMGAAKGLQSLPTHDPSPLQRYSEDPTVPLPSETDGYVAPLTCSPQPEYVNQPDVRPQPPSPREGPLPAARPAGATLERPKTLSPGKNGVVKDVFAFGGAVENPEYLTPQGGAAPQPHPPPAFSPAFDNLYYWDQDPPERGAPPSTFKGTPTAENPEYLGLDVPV
Protocol: BT-474 cells were seeded into a 96-well at 2.0*10^4 cells/100 μl/well. Compounds were dissolved and serially diluted in DMSO. The compounds were then were added, mixed, and incubated for four hours at 37° C., 5% CO2. Compounds were added using four-fold dilutions at final concentrations ranging from 10 μM to 0.01 nM. Following the four hour incubation with compounds, cell lysates were prepared. Plates were centrifuged for 5 min at 3000 RPM, and supernatant was removed from each well. Cells were washed 3 times by resuspension in 150 μl PBS, followed by centrifugation and removal of the supernatant, as above. […] Cells were incubated with lysis buffer for 1 hour at 4° C., and then stored at -80° C. Enzyme-linked immunosorbent assays (ELISA) were performed to measure phosphorylated ERBB2 levels. […] The next day, plates were washed with PBS+0.05% Tween20 (PBST). 150 μl of 5% BSA blocking solution was added for 1 hour at room temperature, with shaking. Plates were washed with PBST. Cell lysates were thawed and 100 μl of lysate was added to the ELISA plate. The plates were incubated for 2 hours at room temperature, with shaking. […] Plates were incubated for 1 hour at room temperature, with shaking. Plates were then washed with PBST, and 100 μl TMB substrate solution (R&D Systems, cat #DY999) was added. Plate were incubated in the dark for 20 minutes at room temperature. 50 μl of Stop solution (R&D Systems, cat #DY994) (50 μl) was added to each well and mixed. Optical density at 450 nm was read on an EnSpire plate reader (Perkin Elmer). The remaining kinase activity by calculated using the following formula: % Relative activity=100×([…]). The low and high control values (“LC” and “HC”) were generated from lysate from wells without cells or with cells treated with 0.1% DMSO, respectively.

[2] = molecular target: T2, phosphorylated EGFR (pEGFR) (Homo sapiens, UniProt P00533); assay: Detection of phosphorylated EGFR (pEGFR) in EGF-stimulated A431 cells (AlphaLISA); type: cell-based; details: A431 cells (10% FBS), 4 hours incubation, EGF 30 ng/mL for 10 minutes
T2 construct: performed to measure phosphorylated EGFR levels using A431 cells; endogenous in cells; host or cells: A431
T2 sequence (P00533 25-1210): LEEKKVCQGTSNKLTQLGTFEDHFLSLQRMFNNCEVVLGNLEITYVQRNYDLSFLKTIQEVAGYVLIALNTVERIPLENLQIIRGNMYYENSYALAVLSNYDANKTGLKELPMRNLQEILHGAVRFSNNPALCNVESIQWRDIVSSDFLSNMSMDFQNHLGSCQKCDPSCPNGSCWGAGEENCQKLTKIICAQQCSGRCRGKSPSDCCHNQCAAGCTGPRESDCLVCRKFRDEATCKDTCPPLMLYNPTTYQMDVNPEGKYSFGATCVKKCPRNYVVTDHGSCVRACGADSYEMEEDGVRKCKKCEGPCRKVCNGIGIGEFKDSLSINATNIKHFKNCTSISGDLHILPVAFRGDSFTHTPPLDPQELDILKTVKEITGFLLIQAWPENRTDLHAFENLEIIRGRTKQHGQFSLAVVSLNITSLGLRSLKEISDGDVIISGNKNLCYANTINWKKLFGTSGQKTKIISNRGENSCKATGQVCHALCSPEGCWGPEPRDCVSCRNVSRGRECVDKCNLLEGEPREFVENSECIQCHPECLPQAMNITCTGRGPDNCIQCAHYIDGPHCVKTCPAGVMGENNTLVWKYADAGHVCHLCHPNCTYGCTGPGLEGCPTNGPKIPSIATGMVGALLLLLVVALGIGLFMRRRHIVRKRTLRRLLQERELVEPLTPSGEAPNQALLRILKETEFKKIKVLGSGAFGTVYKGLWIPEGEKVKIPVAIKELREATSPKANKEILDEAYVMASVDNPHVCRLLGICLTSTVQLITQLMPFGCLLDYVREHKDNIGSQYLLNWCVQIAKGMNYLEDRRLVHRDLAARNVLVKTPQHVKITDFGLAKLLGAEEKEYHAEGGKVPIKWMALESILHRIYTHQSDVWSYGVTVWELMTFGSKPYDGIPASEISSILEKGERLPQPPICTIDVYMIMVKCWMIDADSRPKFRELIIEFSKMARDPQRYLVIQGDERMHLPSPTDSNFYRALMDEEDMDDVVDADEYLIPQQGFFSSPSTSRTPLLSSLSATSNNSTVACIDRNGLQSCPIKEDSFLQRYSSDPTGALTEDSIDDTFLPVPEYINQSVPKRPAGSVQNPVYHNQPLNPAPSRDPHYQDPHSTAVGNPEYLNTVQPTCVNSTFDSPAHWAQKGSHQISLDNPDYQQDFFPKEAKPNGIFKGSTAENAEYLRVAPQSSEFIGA
Protocol: Enzyme-linked immunosorbent assays (ELISA) were performed to measure phosphorylated EGFR levels using A431 cells (10% FBS). A431 (1.0*10^4 cells/40 μl/well) cells were seeded in 384 well. Compounds were dissolved in DMSO, serially diluted in DMSO and then were added, mixed, and incubated for 4 hours at 37° C., 5% CO2. Following the 4-hours incubation, cells were stimulated for 10 minutes with EGF (Invitrogen, cat #PHG0311) at a final concentration of 30 ng/mL in the incubator. The media was aspirated and cells were lysed in 10 μL lysis buffer with protease and phosphatase inhibitors (PerkinElmer, cat #ALSU-PEGFR-A50K). The plates were placed on a shaker for 5 minutes and then incubated for 30 min at 4° C. for complete lysis. The lysate was transferred to an Optiplate (Perkin Elmer, cat #6007290).
Acceptor mix (PerkinElmer, cat #ALSU-PEGFR-A50K) was prepared just before use and 5 μL was dispensed to all the wells, followed by a 1.5-2 h incubation at room temperature in dark. The donor mix (PerkinElmer, cat #ALSU-PEGFR-A50K) was prepared under low light conditions prior to use and 5 μl of donor mix was added to all the wells under subdued lighting or green filters. The plates were placed on a shaker for 5 min, sealed, and incubated overnight at room temperature in dark. Plates were read on the Envision (PerkinElmer) using standard AlphaLISA settings.
The percentage of inhibition on EGFR phosphorylation was calculated following equation: % Inhibition=100×(LumHC−LumSample)/(LumHC−LumLC). The low and high controls (LC/HC) are generated from lysate from wells with cells treated with DMSO or […] Staurosporine (BioAustralis, cat #BIA-S1086), […]. IC50 values were calculated by fitting the Curve using XLfit (v5.3.1.3), equation 201: Y=Bottom+ (Top−Bottom)/(1+10^((LogIC50−X)*HillSlope)).

In the case of `C=CC(=O)N1CCN(c2cc3c(Nc4ccc(Oc5ccc6c(c5)ncn6C)c(C)c4)ncnc3cn2)C[C@H]1C` [Compound 59, 1-[(2R)-2-methyl-4-[4-({3-methyl-4-[(1-methyl-1,3-benzodiazol-5-yl)oxy]phenyl}amino)pyrido[3,4-d]pyrimidin-6-yl]piperazin-1-yl]prop-2-en-1-one], the GI50 (Ba/F3 ERBB2 YVMA) is reported as 0.0274 µM, the IC50 [1] is reported as 0.0201 µM and the IC50 [2] is reported as 3.8 µM.

Compound `C=CC(=O)N1CCN(c2ccc3ncnc(Nc4ccc(Cc5ccn6ncnc6c5)c(C)c4)c3c2)CC1` [Compound 81, 1-(4-(4-((4-([1,2,4]triazolo[1,5-a]pyridin-7-ylmethyl)-3-methylphenyl)amino)quinazolin-6-yl)piperazin-1-yl)prop-2-en-1-one] has a GI50 (Ba/F3 ERBB2 YVMA) of 0.0178 µM, an IC50 [1] of 0.011 µM and an IC50 [2] of 2.36 µM.

`C=CC(=O)N1CCN(c2cc3c(Nc4ccc(Oc5ccn6ncnc6c5)c(C)c4)ncnc3cn2)[C@@H](C)C1` [Compound 69, (S)-1-(4-(4-((4-([1,2,4]triazolo[1,5-a]pyridin-7-yloxy)-3-methylphenyl)amino)pyrido[3,4-d]pyrimidin-6-yl)-3-methylpiperazin-1-yl)prop-2-en-1-one] showed a GI50 (Ba/F3 ERBB2 YVMA) of 0.155 µM, an IC50 [1] of 0.0596 µM and an IC50 [2] greater than 10 µM.

`C=CC(=O)N1CCN(c2ccc3ncnc(Nc4ccc(Cc5ccn6ncnc6c5)c(C)c4)c3c2F)C(C)C1` (stereo not drawn) [Compound 79, 1-(4-(4-((4-([1,2,4]triazolo[1,5-a]pyridin-7-ylmethyl)-3-methylphenyl)amino)-5-fluoroquinazolin-6-yl)-3-methylpiperazin-1-yl)prop-2-en-1-one] showed a GI50 (Ba/F3 ERBB2 YVMA) greater than 0.5 µM, an IC50 [1] of 1.6 µM and an IC50 [2] greater than 10 µM.

For `C=CC(=O)N1CC2CC1CN2c1ccc2ncnc(Nc3ccc(Oc4ccn5ncnc5c4)c(C)c3)c2n1` (stereo not drawn) [Compound 6, 1-(5-{4-[(3-methyl-4-{[1,2,4]triazolo[1,5-a]pyridin-7-yloxy}phenyl)amino]pyrido[3,2-d]pyrimidin-6-yl}-2,5-diazabicyclo[2.2.1]heptan-2-yl)prop-2-en-1-one], the GI50 (Ba/F3 ERBB2 YVMA) was 0.00565 µM, the IC50 [1] was 0.0139 µM and the IC50 [2] was 0.134 µM.

Compound `C=C(F)C(=O)N1CCN(c2ccc3ncnc(Nc4ccc(Oc5ccn6ncnc6c5)c(C)c4)c3n2)CC1` [Compound 13, 2-fluoro-1-(4-{4-[(3-methyl-4-{[1,2,4]triazolo[1,5-a]pyridin-7-yloxy}phenyl)amino]pyrido[3,2-d]pyrimidin-6-yl}piperazin-1-yl)prop-2-en-1-one] has a GI50 (Ba/F3 ERBB2 YVMA) of 0.232 µM, an IC50 [1] of 0.0975 µM and an IC50 [2] greater than 10 µM.

Work on `C=CC(=O)N1CCN(c2ccc3ncnc(Nc4ccc(Oc5ccn6ncnc6c5)c(C)c4)c3n2)[C@@H](C)C1` [Compound 12, 1-[(3S)-3-methyl-4-{4-[(3-methyl-4-{[1,2,4]triazolo[1,5-a]pyridin-7-yloxy}phenyl)amino]pyrido[3,2-d]pyrimidin-6-yl}piperazin-1-yl]prop-2-en-1-one] yielded a GI50 (Ba/F3 ERBB2 YVMA) of 0.00749 µM, an IC50 [1] of 0.0136 µM and an IC50 [2] of 1.18 µM.

`C=CC(=O)N1CCN(c2ncc3ncnc(Nc4ccc(Cc5ccc6c(c5)ncn6C)c(C)c4)c3n2)CC1` [Compound 84, 1-{4-[8-({3-methyl-4-[(1-methyl-1,3-benzodiazol-5-yl)methyl]phenyl}amino)-[1,3]diazino[5,4-d]pyrimidin-2-yl]piperazin-1-yl}prop-2-en-1-one] gave a GI50 (Ba/F3 ERBB2 YVMA) of 0.0107 µM, an IC50 [1] of 0.0252 µM and an IC50 [2] greater than 10 µM.

In the case of `C=CC(=O)N1CCN(c2ccc3ncnc(Nc4ccc(Cc5ccc6c(c5)ncn6C)c(C)c4)c3c2)[C@@H](C)C1` [Compound 125, (S)-1-(3-methyl-4-(4-((3-methyl-4-((1-methyl-1H-benzo[d]imidazol-5-yl)methyl)phenyl)amino)quinazolin-6-yl)piperazin-1-yl)prop-2-en-1-one], the GI50 (Ba/F3 ERBB2 YVMA) is reported as 0.0612 µM, the IC50 [1] is reported as 0.0959 µM and the IC50 [2] is reported as greater than 10 µM.

For `C=CC(=O)N1CCN(c2ccc3ncnc(Nc4ccc(Oc5ccc6c(c5)ncn6C)c(C)c4)c3n2)CC1` [Compound 14, 1-{4-[4-({3-methyl-4-[(1-methyl-1,3-benzodiazol-5-yl)oxy]phenyl}amino)pyrido[3,2-d]pyrimidin-6-yl]piperazin-1-yl}prop-2-en-1-one], the GI50 (Ba/F3 ERBB2 YVMA) was 0.00783 µM, the IC50 [1] was 0.0143 µM and the IC50 [2] was 0.403 µM.

Compound `C=CC(=O)N1CCN(c2ccc3ncnc(Nc4ccc(Oc5ccn6ncnc6c5)c(C)c4)c3n2)CC12CC2` [Compound 118, 1-(7-{4-[(3-methyl-4-{[1,2,4]triazolo[1,5-a]pyridin-7-yloxy}phenyl)amino]pyrido[3,2-d]pyrimidin-6-yl}-4,7-diazaspiro[2.5]octan-4-yl)prop-2-en-1-one] has a GI50 (Ba/F3 ERBB2 YVMA) of 0.00776 µM, an IC50 [1] of 0.0115 µM and an IC50 [2] of 0.107 µM.

Work on `C=CC(=O)N1CCN(c2ccc3ncnc(Nc4ccc(Cc5ccc6c(c5)ncn6C)c(C)c4)c3n2)[C@@H](C)C1` [Compound 68, (S)-1-(3-methyl-4-(4-((3-methyl-4-((1-methyl-1H-benzo[d]imidazol-5-yl)methyl)phenyl)amino)pyrido[3,2-d]pyrimidin-6-yl)piperazin-1-yl)prop-2-en-1-one] yielded a GI50 (Ba/F3 ERBB2 YVMA) of 0.0147 µM, an IC50 [1] of 0.0448 µM and an IC50 [2] of 2.57 µM.

`C=CC(=O)N1CCN(c2cc3c(Nc4ccc(Cc5ccn6ncnc6c5)c(C)c4)ncnc3cn2)CC1` [Compound 103, 1-(4-(4-((4-([1,2,4]triazolo[1,5-a]pyridin-7-ylmethyl)-3-methylphenyl)amino)pyrido[3,4-d]pyrimidin-6-yl)piperazin-1-yl)prop-2-en-1-one] showed a GI50 (Ba/F3 ERBB2 YVMA) of 0.0249 µM, an IC50 [1] of 0.016 µM and an IC50 [2] of 2.77 µM.

Compound `CC#CC(=O)N1C2CC1CN(c1ccc3ncnc(Nc4ccc(Oc5ccn6ncnc6c5)c(C)c4)c3n1)C2` [Compound 29, 1-(3-{4-[(3-methyl-4-{[1,2,4]triazolo[1,5-a]pyridin-7-yloxy}phenyl)amino]pyrido[3,2-d]pyrimidin-6-yl}-3,6-diazabicyclo[3.1.1]heptan-6-yl)but-2-yn-1-one] has a GI50 (Ba/F3 ERBB2 YVMA) of 0.0359 µM and an IC50 [2] of 5.43 µM.

With `Cc1cc(Nc2ncnc3ccc(NC4=NC(C)(C)CO4)cc23)ccc1Oc1ccn2ncnc2c1` [Tucatinib, tucatinib, reference compound] the GI50 (Ba/F3 ERBB2 YVMA) was 0.356 µM.
